# Measurements taken from US11419856B2, “Pharmaceutical combinations for use in the treatment of neoplastic diseases” (Basilea Pharmaceutica International AG, priority 2017, dated 2022).
# Tests used:
# [1] = Tolerability in the MDA-MB-231 xenograft model (body weight, mortalities); conditions: for Final body-weight / Body-weight change: mean ± SD
# Protocol: (§1) The mice were housed on irradiated Enrich-o'Cobs™ Laboratory Animal Bedding in static micro-isolators on a 12-hour light cycle at 20-22° C. (68-72° F.) and 40-60% humidity. Charles River Discovery Services North Carolina (CR Discovery Services) specifically complies with the recommendations of the Guide for Care and Use of Laboratory Animals with respect to restraint, husbandry, surgical procedures, feed and fluid regulation, and veterinary care. The animal care and use program at CR Discovery Services is accredited by the Association for Assessment and Accreditation of Laboratory Animal Care International (AAALAC), which assures compliance with accepted standards for the care and use of laboratory animals. These considerations were taken into account in the way that the dosage regimes were designed and implemented.
# All doses were adjusted to 10 mL/kg. The control groups received oral doses of vehicle (pH 5 buffered 0.9% NaCl solution). Eribulin was administered i.v. and BAL101553 orally. When eribulin and BAL0101553 were dosed in combination, Eribulin was administered to all groups first followed by BAL0101553 dosing within 30 minutes of the first regimen.
# Body weights were recorded daily for days 1-5 and then twice weekly until the end of the study and tumor volumes were recorded twice weekly until the end of the experiment. These parameters were analyzed and graphically represented by using GraphPad-Prism™ 5 for Windows according to standard procedure. […] Skin and subcutaneous tissue including the tumor cell inoculation site from the flank region were resected, preserved in formalin and embedded in paraffin. Sections of approximately 5 μm were mounted on glass slides and stained with hematoxylin/eosin and were evaluated by a trained pathologist, to identify residual tumor cells at the site of injection, and were being reported as positive for the existence of residual tumor cells or as negative for a complete lack of any evidence of residual tumor cells.
# [2] = test system: MDA-MB-231 xenograft (human triple negative breast cancer); assay: Antitumor efficacy and induction of cures in the MDA-MB-231 xenograft model (Examples 1A, 1B); type: in vivo, mouse
# Protocol: as §1, with “Female athymic nude mice (Crl:NU(NCr)-Foxnlnu, Charles River) were used when ten weeks old with a body weight (BW) range of 19.7-27.1 g on Day 1 of the study. The animals were fed ad libitum water (reverse osmosis, 1 ppm Cl) and NIH 31 Modified and Irradiated Lab Diet® consisting of 18.0% crude protein, 5.0% crude fat, and 5.0% crude fiber. The mice” for “The mice”
# The human MDA-MB-231 breast adenocarcinoma cells were grown to mid-log phase in RPMI-1640 medium containing 10% fetal bovine serum, 2 mM glutamine, 100 units/mL sodium penicillin G, 25 μg/mL gentamicin, and 100 μg/mL streptomycin sulfate. The tumor cells were cultured in tissue culture flasks in a humidified incubator at 37° C./5% CO2 and 95% air, harvested during exponential growth and resuspended in cold Phosphate-buffered saline (PBS). Each test animal received a subcutaneous (s.c.) injection of 5×10^6 MDA-MB-231 cells (0.1 mL cell suspension) into the right flank, and tumor growth was monitored as the average tumor size approached the target range of 100-150 mm^3. Tumors were measured (mm) in two dimensions using calipers, and volume was calculated using the formula: Tumor Volume (TV) (mm^3)=(width^2×length)/2. Eighteen days after tumor cell implantation, on Day 1 of the study, mice with individual tumor volumes ranging from 75 to 172 mm^3 were randomized into groups of 8-10 animals, with group mean tumor volumes of 114-124 mm^3.
# BAL0101553 was dissolved in 0.9% NaCl in water buffered to pH 5 with 1% sodium acetate to yield 2, 2.5 and 3 mg/mL dosing solutions, providing 20, 25 and 30 mg/kg dosages, respectively, in 10 mL/kg dosing volumes. Eribulin (purchased from Eisai Co., Lot. No. 6217, 6288, 6289 and 6309) at 0.5 mg/mL concentration was diluted in saline to yield a 0.01, 0.025 and 0.05 mg/mL dosing solutions, providing 0.1, 0.25 and 0.5 mg/kg dosages, respectively, in a dosing volume of 10 mL/kg.
# Groups of mice (n=8-10) bearing MDA-MB-231 tumors were dosed as outlined in the Tables 1 and 3. All doses were adjusted to 10 mL/kg. The control groups received oral doses of vehicle (pH 5 buffered 0.9% NaCl solution). Eribulin was administered i.v. and BAL101553 orally. When eribulin and BAL0101553 were dosed in combination, Eribulin was administered to all groups first followed by BAL0101553 dosing within 30 minutes of the first regimen.
# Body weights were recorded daily for days 1-5 and then twice weekly until the end of the study and tumor volumes were recorded twice weekly until the end of the experiment. These parameters were analyzed and graphically represented by using GraphPad-Prism™ 5 for Windows according to standard procedure. […] Tumor free animals at the end of the study time were assessed for residual MDA-MB-231 tumor cells by pathological methods. Skin and subcutaneous tissue including the tumor cell inoculation site from the flank region were resected, preserved in formalin and embedded in paraffin.
# [3] = E1A, Day 25, p.o. 20 mg/kg qd x5/qw D1-D9, 20 mg/kg qd D12-D34
# [4] = E1A, Day 25, p.o. 30 mg/kg qd x5/qw D1-D9, 25 mg/kg qd D12-D34
# [5] = E1B, Day 26, p.o. 20 mg/kg qd D1-D21, 20 mg/kg qd D25-D43
# [6] = Day 26, BAL101553 p.o. 20 mg/kg qd D1-D21, 20 mg/kg qd D25-D43
# [7] = Day 100 (endpoint), BAL101553 p.o. 20 mg/kg qd D1-D21, 20 mg/kg qd D25-D43
# [8] = E1A, Day 85 (endpoint), p.o. 20 mg/kg qd x5/qw D1-D9, 20 mg/kg qd D12-D34
# [9] = E1A, Day 85 (endpoint), p.o. 30 mg/kg qd x5/qw D1-D9, 25 mg/kg qd D12-D34
compound,measurement,setting,value
"N#CCCNc1nonc1-c1nc2ccccc2n1CC(=O)c1ccc(NC(=O)[C@@H](N)CCCCN)cc1 [BAL101553, (S)-2,6-Diamino-hexanoic acid [4-(2-{2-[4-(2-cyano-ethylamino)-furazan-3-yl]-benzoimidazol-1-yl}-acetyl)-phenyl]-amide]",Final body-weight,[1]; [3],26.6 ± 1.6 g
same,Final body-weight,[1]; [4],25 ± 1.9 g
same,"T/C (TC-BW, body weight)",[1]; [3],1.02
same,"T/C (TC-BW, body weight)",[1]; [4],1.00
same,Body-weight change,"[1]; E1A, day-0 until day-25, p.o. 20 mg/kg qd x5/qw D1-D9, 20 mg/kg qd D12-D34",2.8 ± 0.7 g
same,Body-weight change,"[1]; E1A, day-0 until day-25, p.o. 30 mg/kg qd x5/qw D1-D9, 25 mg/kg qd D12-D34",2.0 ± 0.8 g
same,Mortalities,"[1]; E1A, p.o. 20 mg/kg qd x5/qw D1-D9, 20 mg/kg qd D12-D34",0/8
same,Final body-weight,[1]; [5],25.9 ± 1.4 g
same,"T/C (TC-BW, body weight)",[1]; [5],1.04
same,Body-weight change,"[1]; E1B, day-0 until day-26, p.o. 20 mg/kg qd D1-D21, 20 mg/kg qd D25-D43",2.6 ± 0.7 g
same,Mortalities,"[1]; E1B, p.o. 20 mg/kg qd D1-D21, 20 mg/kg qd D25-D43",0/10
same,# of regressed tumors (total),[2]; [6],1 (10)
same,T/C,[2]; [6],0.12
same,# of confirmed cures (total),[2]; [7],1 (10)
same,# of tumors with TV ≤ 4 mm^3 (total),[2]; [7],0 (10)
same,% cures,[2]; [7],10%
same,# of regressed tumors (total),[2]; [3],0 (8)
same,T/C,[2]; [3],0.21
same,# of regressed tumors (total),[2]; [4],4 (8)
same,T/C,[2]; [4],0.07
same,# of confirmed cures (total),[2]; [8],0 (8)
same,# of tumors with TV ≤ 4 mm^3 (total),[2]; [8],0 (8)
same,% cures,[2]; [8],0%
same,# of confirmed cures (total),[2]; [9],0 (8)
same,# of tumors with TV ≤ 4 mm^3 (total),[2]; [9],0 (8)
same,% cures,[2]; [9],0%
